# Values of other authors, collected in patent US6413525B1, “Methods of exfoliation using N-acetyl glucosamine” (Color Access, Inc., priority 1999, dated 2002).
# Tested on: skin
# Settings: as disclosed in WO97/12597
compound,measurement,value
CC(=O)N[C@H]1C(O)O[C@H](CO)[C@@H](O)[C@@H]1O (stereo partly drawn) [N-acetyl-D-glucosamine],efficacy as a topical desquamating agent,not found to be effective
